Source: ChEMBL document CHEMBL1671707, “Mycobacterium tuberculosis dihydrofolate reductase is not a target relevant to the antitubercular activity of isoniazid” (Antimicrob Agents Chemother, 2010)
In brackets after ≈: the same amount, converted by molar mass. Activity calls are given as the source filed them. The calls are words filed in the database; no cut-off is given here.

Experiments:
[1] = tested on: Mycolicibacterium smegmatis; assay: Antimicrobial activity against Mycobacterium smegmatis MC2 4517 by broth microdilution method; type: functional
[2] = tested on: Mycolicibacterium smegmatis; assay: Antimicrobial activity against Mycobacterium smegmatis MC2 5072 overexpressing dhfr gene assessed as growth inhibition at 120 ug/ml; type: functional, organism-based
Escherichia coli = assay: Antimicrobial activity against Escherichia coli expressing katG and dfrA gene; type: functional, organism-based
[3] = tested on: Mycolicibacterium smegmatis; assay: Antimicrobial activity against Mycobacterium smegmatis MC2 5072 overexpressing dhfr gene assessed as growth inhibition at 10 ug/ml; type: functional, organism-based
[4] = tested on: Mycolicibacterium smegmatis; assay: Antimicrobial activity against Mycobacterium smegmatis MC2 5071 overexpressing InhA gene assessed as growth inhibition at 50 ug/ml; type: functional, organism-based
Dihydrofolate reductase = target: T1, Dihydrofolate reductase (Mycobacterium tuberculosis, UniProt P9WNX1); assay: Inhibition of Mycobacterium tuberculosis dihydrofolate reductase
T1 sequence (P9WNX1 whole entry): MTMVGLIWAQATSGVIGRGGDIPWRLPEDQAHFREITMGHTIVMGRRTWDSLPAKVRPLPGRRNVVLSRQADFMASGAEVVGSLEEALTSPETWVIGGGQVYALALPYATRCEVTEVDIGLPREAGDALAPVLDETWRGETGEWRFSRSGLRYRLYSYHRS

[5] = tested on: Mycolicibacterium smegmatis; assay: Antimicrobial activity against Mycobacterium smegmatis MC2 5071 overexpressing InhA gene assessed as growth inhibition at 120 ug/ml; type: functional, organism-based
[6] = tested on: Mycobacterium tuberculosis; assay: Antimicrobial activity against wild-type Mycobacterium tuberculosis H37Rv by MTT assay; type: functional
[7] = tested on: Mycolicibacterium smegmatis; assay: Antimicrobial activity against Mycobacterium smegmatis MC2 5069 assessed as growth inhibition at 50 ug/ml; type: functional, organism-based
[8] = tested on: Mycolicibacterium smegmatis; assay: Ratio of MIC for Mycobacterium smegmatis overexpressing dfrA gene to MIC for wild-type Mycobacterium smegmatis; type: functional
[9] = tested on: Mycolicibacterium smegmatis; assay: Antimicrobial activity against Mycobacterium smegmatis MC2 5071 overexpressing InhA gene assessed as growth inhibition at 150 ug/ml; type: functional, organism-based
[10] = tested on: Mycolicibacterium smegmatis; assay: Antimicrobial activity against Mycobacterium smegmatis MC2 5069 assessed as growth inhibition at 150 ug/ml; type: functional, organism-based
[11] = tested on: Mycolicibacterium smegmatis; assay: Antimicrobial activity against Mycobacterium smegmatis MC2 5071 overexpressing InhA gene assessed as growth inhibition at 10 ug/ml; type: functional, organism-based

Row | SMILES | MIC [1] | Activity [2] | Activity (Escherichia coli) | Activity [3] | Activity [4] | Ki (Dihydrofolate reductase) | Activity [5] | MIC [6] | Activity [7] | Ratio [8] | Activity [9] | Activity [10] | Activity [11]
1 | CCc1cc(C(N)=S)ccn1 [ETHIONAMIDE] | 9.4 µg/mL (≈ 56.5 µM) | – | – | – | – | – | – | – | – | – | – | – | –
2 | NNC(=O)c1ccncc1 [ISONIAZID] | 4.7 µg/mL (≈ 34.3 µM) | Active | inactive | Active | Active | 1 nM | inactive | 0.06 µg/mL (≈ 0.438 µM) | Active | 2 | Active | Active | inactive
